Laboratory results taken from ChEMBL document CHEMBL1201862, “PubChem BioAssay data set” (2004).
Structures can show the parent of a compound that is named as a salt.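 Results reflect a 48-hour exposure of cells in 96-well plates to compound at five concentrations. GI50 is the concentration that inhibits growth by half.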 Calls of active or inactive are those of the source. No stated cut-off is given here; in the data, active = GI50 up to about 1.1 µM and inactive = higher.

Experiments:
Assay in all cases: DTP human tumour cell line panel, 48 h
HT-29 = tested on: HT-29
HCC 2998 = tested on: HCC 2998
786-0 = tested on: 786-0
OVCAR-8 = tested on: OVCAR-8
KM12 = tested on: KM12
HOP-62 = tested on: HOP-62
CCRF-CEM = tested on: CCRF-CEM
SK-MEL-5 = tested on: SK-MEL-5
SK-OV-3 = tested on: SK-OV-3
OVCAR-5 = tested on: OVCAR-5
SNB-19 = tested on: SNB-19
U-251 = tested on: U-251
SR = tested on: SR
OVCAR-3 = tested on: OVCAR-3
SK-MEL-28 = tested on: SK-MEL-28
NCI-H226 = tested on: NCI-H226

Measured: GI50

S=c1sc2sc(=S)sc2s1
inactive: HT-29 29.6 µM | HCC 2998 > 100 µM | 786-0 68.4 µM | OVCAR-8 50.1 µM | KM12 > 100 µM | HOP-62 > 100 µM | CCRF-CEM 6.08 µM | SK-MEL-5 > 100 µM | SK-OV-3 19.6 µM | OVCAR-5 20.9 µM | SNB-19 > 100 µM | U-251 21 µM | SR 29.1 µM

Cn1cc(C(=O)c2ccccc2)c2ccccc2c1=O
inactive: HT-29 > 100 µM | HCC 2998 > 100 µM | 786-0 > 100 µM | OVCAR-8 > 100 µM | KM12 > 100 µM | OVCAR-3 > 100 µM | HOP-62 18.8 µM | CCRF-CEM > 100 µM | SK-MEL-5 > 100 µM | SK-OV-3 > 100 µM | SK-MEL-28 > 100 µM | SR > 100 µM

CC1=NN(C(=O)CC(=O)Nc2ccccc2F)C(=O)C1/N=N/c1ccccc1[N+](=O)[O-] (stereo not given)
inactive: HT-29 > 100 µM | 786-0 > 100 µM | OVCAR-8 58.5 µM | NCI-H226 > 100 µM | KM12 > 100 µM | OVCAR-3 96.4 µM | HOP-62 > 100 µM | CCRF-CEM 79.6 µM | SK-MEL-5 17.9 µM | SK-OV-3 > 100 µM | OVCAR-5 > 100 µM | SNB-19 > 100 µM | SK-MEL-28 > 100 µM | U-251 > 100 µM

C=C1CN2CCc3c([nH]c4ccccc34)C2CC1CC(=O)N(C)C (stereo not given)
inactive: HT-29 > 309 µM | HCC 2998 > 309 µM | 786-0 > 309 µM | OVCAR-8 > 309 µM | NCI-H226 > 309 µM | KM12 > 309 µM | OVCAR-3 > 309 µM | HOP-62 > 309 µM | CCRF-CEM > 309 µM | SK-MEL-5 > 309 µM | SK-OV-3 > 309 µM | SNB-19 > 309 µM | SK-MEL-28 > 309 µM | U-251 > 309 µM | SR > 309 µM

COC1=C(OC)CCC(/C(C#N)=C/c2ccc(OC)c(OC)c2)=C1
inactive: HT-29 80.9 µM | HCC 2998 > 100 µM | 786-0 67.5 µM | OVCAR-8 > 100 µM | NCI-H226 > 100 µM | KM12 > 100 µM | OVCAR-3 > 100 µM | HOP-62 31.1 µM | CCRF-CEM > 100 µM | SK-MEL-5 > 100 µM | SK-OV-3 26.4 µM | OVCAR-5 > 100 µM | SK-MEL-28 > 100 µM | U-251 34.5 µM | SR 66.7 µM

CN(C)/C(=N/C(=O)Nc1ccccc1)SCc1ccccc1
inactive: HT-29 > 100 µM | HCC 2998 > 100 µM | 786-0 > 100 µM | OVCAR-8 > 100 µM | NCI-H226 > 100 µM | KM12 > 100 µM | OVCAR-3 > 100 µM | HOP-62 > 100 µM | CCRF-CEM > 100 µM | SK-MEL-5 > 100 µM | SK-OV-3 > 100 µM | OVCAR-5 > 100 µM | SNB-19 > 100 µM | SK-MEL-28 > 100 µM | U-251 > 100 µM

O=C(O)CC12C3C4C5C3C1C5C42 (stereo not given)
inactive: HT-29 > 100 µM | HCC 2998 > 100 µM | 786-0 > 100 µM | OVCAR-8 > 100 µM | KM12 > 100 µM | OVCAR-3 > 100 µM | HOP-62 > 100 µM | CCRF-CEM > 100 µM | SK-MEL-5 > 100 µM | SK-OV-3 > 100 µM | OVCAR-5 > 100 µM | SNB-19 > 100 µM | SK-MEL-28 > 100 µM | U-251 > 100 µM

CC(=O)OC1COC(n2ccc3cc(Br)c([N+](=O)[O-])cc32)C(OC(C)=O)C1OC(C)=O (stereo not given)
inactive: HT-29 28.7 µM | HCC 2998 24 µM | 786-0 33.3 µM | OVCAR-8 22.4 µM | NCI-H226 14.5 µM | KM12 34.2 µM | OVCAR-3 23.8 µM | HOP-62 30.5 µM | CCRF-CEM 21.1 µM | SK-MEL-5 > 10 µM | SK-OV-3 31.8 µM | SNB-19 30 µM | SK-MEL-28 27.4 µM | U-251 19.5 µM | SR 30.4 µM

CC1(Cl)C(=O)NC(=O)N(C2CC(N=[N+]=[N-])C(CO)O2)C1N=[N+]=[N-] (stereo not given)
inactive: HT-29 > 100 µM | HCC 2998 > 100 µM | 786-0 > 100 µM | OVCAR-8 > 100 µM | KM12 > 100 µM | OVCAR-3 > 100 µM | HOP-62 > 100 µM | CCRF-CEM > 100 µM | SK-MEL-5 > 100 µM | SK-OV-3 > 100 µM | OVCAR-5 > 100 µM | SNB-19 > 100 µM | SK-MEL-28 > 100 µM | U-251 > 100 µM

CC(=O)/C(=C\c1ccco1)C(=O)Nc1ccccc1
inactive: HT-29 > 100 µM | HCC 2998 > 100 µM | 786-0 > 100 µM | OVCAR-8 > 100 µM | KM12 > 100 µM | OVCAR-3 > 100 µM | HOP-62 > 100 µM | CCRF-CEM > 100 µM | SK-MEL-5 > 100 µM | SK-OV-3 > 100 µM | SNB-19 > 100 µM | SK-MEL-28 > 100 µM | U-251 > 100 µM | SR > 100 µM

CC(C)(C)C(=O)/C=C/c1cccc(Oc2ccccc2)c1
inactive: HT-29 9.12 µM | HCC 2998 19 µM | 786-0 16.7 µM | OVCAR-8 13.6 µM | NCI-H226 18.2 µM | KM12 11.6 µM | HOP-62 45 µM | CCRF-CEM 4.08 µM | SK-MEL-5 14.4 µM | SK-OV-3 41 µM | OVCAR-5 18.4 µM | SNB-19 15.5 µM | SK-MEL-28 16.4 µM | U-251 11.3 µM | SR 4.2 µM

O=C/C1=C/C2=Cc3ccccc3C=C(/C=C(/C=O)C1)C2
inactive: HT-29 40.5 µM | HCC 2998 45.9 µM | 786-0 78.2 µM | OVCAR-8 28.9 µM | NCI-H226 43.2 µM | KM12 36.1 µM | OVCAR-3 37.5 µM | HOP-62 74.8 µM | CCRF-CEM 16.2 µM | SK-MEL-5 35.3 µM | OVCAR-5 > 100 µM | SNB-19 44.9 µM | SK-MEL-28 39.6 µM | U-251 34.3 µM

O=C1OC(c2ccccc2)=N/C1=C/N1CCCC1C(=O)O (stereo not given)
inactive: HT-29 > 100 µM | HCC 2998 > 100 µM | 786-0 > 100 µM | OVCAR-8 > 100 µM | NCI-H226 > 100 µM | KM12 > 100 µM | OVCAR-3 > 100 µM | HOP-62 > 100 µM | CCRF-CEM > 100 µM | SK-MEL-5 > 100 µM | SK-OV-3 > 100 µM | OVCAR-5 > 100 µM | SNB-19 > 100 µM | SK-MEL-28 > 100 µM | U-251 > 100 µM

CNC(C)Cc1ccccc1OC (stereo not given) [METHOXYPHENAMINE HYDROCHLORIDE]
inactive: HT-29 > 100 µM | HCC 2998 > 100 µM | 786-0 > 100 µM | OVCAR-8 > 100 µM | NCI-H226 > 100 µM | KM12 > 100 µM | OVCAR-3 > 100 µM | HOP-62 > 100 µM | CCRF-CEM > 100 µM | SK-MEL-5 > 100 µM | SK-OV-3 > 100 µM | OVCAR-5 > 100 µM | SNB-19 > 100 µM | SK-MEL-28 > 100 µM | U-251 > 100 µM
